Laboratory results taken from ChEMBL document CHEMBL3046325, “Synthesis, computational studies, and preliminary pharmacological evaluation of new arylpiperazines as potential antipsychotics” (Med Chem Res, 2012).

Assays:
[1] = system: Mus musculus; assay: Induction of catalepsy in ip dosed Mus musculus albino (mouse) measured at 30 min interval until 120 min and at the end of 240 min; format: organism-based; conditions: in vivo
[2] = system: Mus musculus; assay: Antipsychotic activity in ip dosed Mus musculus Swiss albino (mouse) assessed as inhibition of […] -induced climbing behavior pretreated 10 min prior to 2.5 mg/kg, ip apomorphine administration measured at 5 min intervals for up to 20 min starting 10 min after apomorphine challenge; format: functional; conditions: route intraperitoneal
[3] = system: Mus musculus; assay: Antipsychotic activity in ip dosed Mus musculus Swiss albino (mouse) assessed as inhibiton of 5-HTP-induced head twitches pretreated 30 min before 50 mg/kg, sc 5-HTP administration measured at 10 min intervals for 30 min, starting 20 min after 5-HTP challenge; format: functional

Row | Structure (SMILES) | ED50 [1] [mg/kg] | ED50 [2] [mg/kg] | ED50 [3] [mg/kg]
1 | NC(=O)c1ccccc1OCCN1CCN(c2ccccc2)CC1 | 50 | 35.3 | 30
2 | Cc1cccc(N2CCN(CCOc3ccccc3C(N)=O)CC2)c1 | 70 | 40 | > 20
3 | Cc1ccc(N2CCN(CCOc3ccccc3C(N)=O)CC2)cc1 | > 80 | 40.5 | 27.2
4 | COc1ccccc1N1CCN(CCOc2ccccc2C(N)=O)CC1 | 100 | 40 | 10
5 | COc1cccc(N2CCN(CCOc3ccccc3C(N)=O)CC2)c1 | > 80 | > 40 | 25
6 | NC(=O)c1ccccc1OCCN1CCN(c2ccccc2Cl)CC1 | > 80 | > 40 | > 20
7 | NC(=O)c1ccccc1OCCCN1CCN(c2ccccc2)CC1 | > 60 | > 40 | > 20
8 | COc1ccccc1N1CCN(CCCOc2ccccc2C(N)=O)CC1 | > 60 | 50 | 18.2
9 | NC(=O)c1ccccc1OCCCCN1CCN(c2ccccc2)CC1 | > 60 | > 40 | > 40
10 | COc1ccccc1N1CCN(CCCCOc2ccccc2C(N)=O)CC1 | > 70 | 50.8 | > 40
11 | CN1CCN(C2=Nc3cc(Cl)ccc3Nc3ccccc32)CC1 [CLOZAPINE] |  | 8.7 | 2.8
